For data set [1], the target named is T1, recombinant human AEP (rAEP) (Homo sapiens, UniProt Q99538).
T1 construct: 7xHis (N); purchased R & D Systems, Abingdon, UK; host or cells: NS0 murine myeloma cell line
T1 sequence (Q99538 18-323 limits assumed): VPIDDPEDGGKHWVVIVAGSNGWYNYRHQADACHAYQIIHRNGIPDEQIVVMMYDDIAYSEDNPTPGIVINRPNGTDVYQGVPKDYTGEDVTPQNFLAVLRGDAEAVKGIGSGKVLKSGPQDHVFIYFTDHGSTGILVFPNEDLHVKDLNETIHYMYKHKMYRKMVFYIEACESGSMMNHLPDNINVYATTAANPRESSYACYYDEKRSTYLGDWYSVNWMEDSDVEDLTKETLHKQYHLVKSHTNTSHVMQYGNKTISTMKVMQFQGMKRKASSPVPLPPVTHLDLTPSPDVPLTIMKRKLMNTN
The data set can be described thus: Michaelis-Menten / Lineweaver-Burk kinetics of rAEP with synthetic substrate, product measured by SRM-MS. The data set is classed as biochemical. The following applies: 16 hr incubation at 37°C; 10 ng rAEP; substrate 0.02 mM to 1.3 mM; Lineweaver-Burk plot; SRM-MS peak area of product; n = 3. How it is done: Figure 3 Development of Assay Conditions to Monitor AEP Activity in Plasma A. The level of hydrolysis of AEP substrate with respect to time. 2.44 ng/μl and 9.1 ng/μl of rAEP were spiked into a background of pH modified plasma (pH 5.8) and assayed by SRM-MS for the product peptide. Error bars shown are +/−SD (n = 3). B-C. Rate of AEP activity assayed with different concentrations of substrate (hpvFAANDVSKvph) ranging from 0.02 mM to 1.3 mM. Area under the curve, drawn from SRM-MS of the product peptide, was used to obtain the rate of reaction for AEP activity as shown in Michaelis-Menten Curve (B). […] D. The linearity and limit-of-detection of the AEP assay was investigated by measuring the amount of hydrolysis by 2.0 pg to 0.25 ng of rAEP spiked into 25 μl of plasma and product measured by SRM-MS of Error bars shown are +/−SEM (n = 3). The assay was repeated three times and a technical variance of 3-28% was calculated.
To optimise substrate concentration in our assay, 10 ng of rAEP was incubated with 0.02 mM to 1.3 mM of synthetic substrate for 1 hr, 4 hr (Supplementary Figure S2) or 16 hr (Figure 3B and 3C) at 37°C. The rate of reaction was determined from the amount of product formed per hour and used for Michaelis-Menten enzyme kinetic analysis (Figure 3B). […]
All samples were analysed on a 6500 Q-TRAP (AB Sciex, Warrington, UK) coupled to a nano Acquity uPLC (Waters Inc, MA, US). […]

Data set [2] in a line: Stability of cleaved substrate in plasma, SRM-MS. The data set is classed as in vitro ADME. The following applies: human plasma 25 μl diluted fivefold in assay buffer pH 5.8, 1 pmole to 1 amole spiked, ACN precipitation, n = 3. Here is the method: Figure 2 Detection of Cleaved Substrate Peptide by Mass Spectrometry A-B. 10 ng of recombinant AEP (rAEP) was incubated with 1 μg (0.65 mM) synthetic substrate peptide (hpvFAANDVSKvph) overnight at 37°C. Samples were dried down by vacuum centrifuge and resuspended in LB. 5 pmole of the substrate was loaded on to the liquid chromatography column and cleaved substrate was analysed by SRM MS (A) followed by an DDA workflow (B). (A) Three SRM transitions (b4-481.25^+, b5-552.29^+, b6-623.33^+) were used to detect the cleaved substrate, sequenced as hpvFAAN (378.2^2+ precursor ion). The target peptide eluted at 32 min during the chromatographic gradient. (B) Product ion scans of precursor 378.2^2+ as analysed by DDA. C. […] Samples were resuspended in LB and analyzed by SRM MS. […]
For an assay to measure enzyme activity it is important that the product is stable for the duration of the assay and is present at a level that can be detected. The limit of detection (LOD) and stability of the product hpvFAAN were analysed by serial dilution down to 1 amole in the presence or absence of plasma using SRM MS analysis. This allowed the LOD to be calculated as 2 amole with a linear response up to 1 pmole without a plasma background (Figure 2C). […]

As usually defined, the Km is the substrate concentration at which the rate is half of its maximum.

Square brackets hold non-standard residues; d marks the D form. Peptide text beside a SMILES is read from it.

Consider `CC(C)[C@H](NC(=O)[C@H](CC(=O)O)NC(=O)[C@H](CC(N)=O)NC(=O)[C@H](C)NC(=O)[C@H](C)NC(=O)[C@H](Cc1ccccc1)NC(=O)[C@H](NC(=O)[C@H]1CCCN1C(=O)[C@H](N)Cc1c[nH]cn1)C(C)C)C(=O)N[C@@H](CO)C(=O)N[C@@H](CCCCN)C(=O)N[C@@H](C(=O)N1CCC[C@@H]1C(=O)N[C@H](Cc1c[nH]cn1)C(=O)O)C(C)C` [hpvFAANDVSKvph] (H-[dH][dP][dV]FAANDVSK[dV][dP][dH]-OH), for which the Km in data set [1] is 400 µM. For `CC(C)[C@@H](NC(=O)[C@H]1CCCN1C(=O)[C@H](N)Cc1c[nH]cn1)C(=O)N[C@@H](Cc1ccccc1)C(=O)N[C@@H](C)C(=O)N[C@@H](C)C(=O)N[C@@H](CC(N)=O)C(=O)O` [hpvFAAN] (H-[dH][dP][dV]FAAN-OH), in data set [2], the “Stability of the product in plasma” value is listed as “stable”.
